Experimental data published in patent US6858748B1, “Treatment of colon cancer” (Research Foundation of the University of Central Florida, priority 2001, dated 2005).

Tests used:
[1] = test system: human colon cancer cells (ATCC CCL220); test: Cytotoxicity assay (MTS/PMS growth inhibition); type: cell-based; conditions: approximately 48 hours with test compound, MTS/PMS readout, concentration not given
Procedure: The antitumor activity against human colon cancer cells of the novel compounds (as earlier reported) was realized by the following procedure which determines the inhibitory effect of test samples on the growth of human colon cancer cells (ATCC CCL220). The CCL220 cells are grown in RPMI 1640 media+10% Fetal bovine serum+1% Antibiotic/Antimycotic for approximately 48 hours at 37° C./5% CO2 in the presence of the test compound.
Growth/Non-Growth of the cells (e.g., cell density) is determined using Promega's MTS/PMS assay system. MTS (3-(4,5-dimethylthiazol-2-yl)-5-(3-carboxymethoxyphenyl)-2-(4-sulfophenyl)-2H-tetrazolium, inner salt) is an aqueous compound that is reduced to soluble formazan by the presence of NADH formed by dehydrogenases present within the CCL220 cells. The absorbance of the formazan can be measured at 490 nm and is directly proportional to the number of living cells present in the culture. PMS (Phenazine Methosulfate) is added an electron coupling reagent and greatly increases the rate of reduction. […]
In order to establish the accuracy of this assay a Positive Control consisting of 50 μM Methotrexate should not decrease the net absorbance to less than 90% of the Negative Control (CCL220 cells are somewhat resistant to methotrexate) is utilized.

white mice = test: Animal toxicity bioassay (acute toxicity, intraperitoneal); type: in vivo; conditions: 14 days observation, Litchfield and Wilkinson
Procedure: Acute toxicity was studied on white mice of both sexes with weight ranging between 18-26 grams under intraperitoneal injection of 2% solution of tested compound in starch (the compound was dissolved in starch slime and injected) on the basis of 0.1 ml of solution per 10 g of the animal weight Each dose was tested on the group of 6 animals that were observed during 14 days period. (This method was approved by the Pharmacology committee of Russian Ministry of Health and has been widely used since 1968.) Averaged lethal dose (LD50) of the compound was computed using results of experiments on 5-7 groups of animals using method of Litchfield and Wilkinson. (Belenkii M. L. “Elements of quantative determination of the pharmacological effect,” Leningrad, 1963, 71 pages).

Mice = conditions: cited from earlier work
[2] = Solubility in organic solvents; type: physicochemical
Stability in solution = type: physicochemical; conditions: decomposes quickly when solution is heated or stored for a long time, forming OF-12

SMILES | percent activity against human colon cancer [1] [%] | LD50 (white mice) [mg/kg] | IPN-Mice LD50 (Mice) [mg/kg] | Solubility ([2]; DMSO, DMFA, dichloroethane, acetonitrile) | Solubility ([2]; hexane) | Stability in solutions (Stability in solution)
CCOc1ccc(C(Cl)=CC(=NN=C2c3ccccc3-c3ccccc32)C(=O)OC)cc1 [3F-19, 4-Chloro-4-(4-ethoxy-phenyl)-2-(fluoren-9-ylidene-hydrazono)-but-3-enoic acid methyl ester] | 100 | > 200 |  |  |  | 
O=c1[nH]cc(F)c(=O)[nH]1 [5-FU, fluorouracil] |  |  | 230 |  |  | 
CCOc1ccc(C(=O)CC(O)(NN=C2c3ccccc3-c3ccccc32)C(=O)OC)cc1 (centres unmarked) [OF-13, 4-(4-Ethoxy-phenyl)-2-(N′-fluoren-9-ylidene-hydrazino)-2-hydroxy-4-oxo-butyric acid methyl ester] | 100 | > 1500 |  | highly soluble | insoluble | not stable in solutions
